This is an account of results in patent publication US8614166B2, “Herbicidal composition for tolerant or resistant cotton crops” (Bayer Intellectual Property GmbH, priority 1998, dated 2013).

Molecules are shown by their SMILES. Counter-ions that a name gives are not always drawn.

Common to all, as to assay: Field trial in tolerant cotton, herbicidal action against weed
Type in all cases: in vivo

The test system of one assay is Datura stramonium. Conditions: application in the 4-5-leaf stage, scoring 3 weeks after application. On the procedure: (§1) Transgenic cotton plants with a resistance to one or more herbicides (A) together with typical weed plants were grown in the open on 2×5 m plots under natural field conditions; alternatively, weed infestation occurred naturally when the cotton plants were grown.
(§2) […] The damage to, and the development of, all aerial parts of the plants was recorded. Scoring was done on the basis of a percentage sale (100% action=all plants destroyed; 50% action=50% of the plants and green parts of the plants destroyed; 0% action=no recognizable effect=like control plot. The mean of the score values of in each case 4 plots was calculated.

Another assay deals with Echinocloa colonum. The note with it: application in the 4-5-leaf stage, scoring 3 weeks after application. On the procedure:
as §1, §2

In a further assay the test system is Ipomoea hederacea. The note with it: application in the 4-leaf stage, scoring 23 days after application. On the procedure: as §1, §2
A further assay concerns Abutilon theophrasti. The note with it: dose 300 g of a.s./ha; application in the 4-5 leaf stage; scoring 27 days after application. On the procedure:
as §1
(§3) 2, 4, 6 and 8 weeks after the application, the herbicidal activity of the active substances or active substance mixtures was scored visually with reference to the treated plots in comparison to untreated control plots. The damage to, and the development of, all aerial parts of the plants was recorded. Scoring was done on the basis of a percentage sale (100% action=all plants destroyed; 50% action=50% of the plants and green parts of the plants destroyed; 0% action=no recognizable effect=like control plot. The mean of the score values of in each case 4 plots was calculated.

The test system of a further assay is Sorghum halepense. Conditions: application in the 4-leaf stage, scoring 30 days after application. On the procedure:
as §1, §3

In the case of `CP(=O)(O)CCC(N)C(=O)O` (stereo not shown) [(A1.2), glufosinate-monoammonium salt], the figures for the “Herbicidal action (%) against Datura stramonium” value in the assay with Datura stramonium (dose 450 g of a.s./ha), with Datura stramonium (dose 600 g of a.s./ha) and with Datura stramonium (dose 1000 g of a.s./ha) were 75%, 90% and 100%, respectively. Moreover, the “Herbicidal action (%) against Echinocloa colonum” value in the assay on Echinocloa colonum (dose 450 g of a.s./ha) turned out to be 0%; with Echinocloa colonum (dose 600 g of a.s./ha), 15%; in the assay on Echinocloa colonum (dose 1000 g of a.s./ha), 30%. The “Herbicidal action (%) against Ipomoea hederacea” value with Ipomoea hederacea (dose 400 g of a.s./ha) came to 43%; with Ipomoea hederacea (dose 600 g of a.s./ha), 75%. Besides, the “Herbicidal action (%) against Abutilon theophrasti” value with Abutilon theophrasti turned out to be 30%. Further, the entries for the “Herbicidal action (%) against Sorghum halepense” value in the assay on Sorghum halepense (dose 300 g of a.s./ha) and in the assay with Sorghum halepense (dose 500 g of a.s./ha) were 15% and 53%, respectively.

Take `COCc1cnc(C2=NC(C)(C(C)C)C(=O)N2)c(C(=O)O)c1` (stereo not shown) [(A3.5), imazamox]: in the assay with Ipomoea hederacea (dose 35 g of a.s./ha), the “Herbicidal action (%) against Ipomoea hederacea” value was determined as 42%.

As to `CN(C)C(=O)Nc1cccc(C(F)(F)F)c1` [(B1.2), N,N-dimethyl-N′-[3-(trifluoromethyl)phenyl]urea], the “Herbicidal action (%) against Ipomoea hederacea” value in the assay on Ipomoea hederacea (dose 1120 g of a.s./ha) is given as 37%.

Regarding `CCc1cccc(C)c1N(C(=O)CCl)C(C)COC` (stereo not shown) [(B1.9), 2-chloro-N-(2-ethyl-6-methylphenyl)-N-(2-methoxy-1-methylethyl)acetamide], the “Herbicidal action (%) against Datura stramonium” value in the assay with Datura stramonium (dose 930 g of a.s./ha) turned out to be 0%. For the same molecule, the “Herbicidal action (%) against Echinocloa colonum” value with Echinocloa colonum (dose 930 g of a.s./ha) came out at 88%.

Consider `CCC(CC)Nc1c([N+](=O)[O-])cc(C)c(C)c1[N+](=O)[O-]` [(B1.12), N-(1-ethylpropyl)-2,6-dinitro-3,4-xylidine], for which the “Herbicidal action (%) against Ipomoea hederacea” value in the assay on Ipomoea hederacea (dose 925 g of a.s./ha) stood at 42%.

Regarding `COc1cc(OC)nc(Sc2cccc(Cl)c2C(=O)[O-])n1.[Na+]` [(B2.4), sodium 2-chloro-6-(4,6-dimethoxypyrimidin-2-ylthio)benzoate], the “Herbicidal action (%) against Ipomoea hederacea” value in the assay on Ipomoea hederacea (dose 105 g of a.s./ha) is listed as 42%.

Consider `CCCC(=NOCC)C1=C(O)CC(C2CCCSC2)CC1=O` (stereo not shown) [(B4.2), 2-(1-ethoxyiminobutyl)-3-hydroxy-5-thian-3-ylcyclohex-2-enone], for which, in the assay on Sorghum halepense (dose 125 g of a.s./ha), the “Herbicidal action (%) against Sorghum halepense” value came to 58%.

Turning to `N#Cc1cc(Br)c(O)c(Br)c1` [(B5.1), 3,5-dibromo-4-hydroxybenzonitrile], in the assay with Ipomoea hederacea (dose 560 g of a.s./ha), the “Herbicidal action (%) against Ipomoea hederacea” value turned out to be 32%.
